Measurements from patent publication US9724329B2, “Stimulating immune response” (Peter MacCallum Cancer Institute, priority 2010, dated 2017).
“Also recorded” adds a separate entry of the source.

Legend:
[1] = test system: transplanted Vk*MYC MM; test: Transplanted Vk*MYC myeloma model in mice: survival, paraproteinaemia (M-spike), serum immunoglobulin; type: in vivo, mouse; settings: for efficacy against Vk*MYC MM in vivo (progression): FIG. 8d, lenalidomide 100 mg/kg, NMP, saline control
Procedure: Sublethally (6Gy) irradiated C57BL/6 mice were injected with 1×10e5 Vk*myc splenocytes derived from myelomatous mice by intravenous injection. Recipient mice were monitored by serum protein electophoresis for development of monoclonal paraproteinaemia (M-spike). The monoclonal paraprotein is a sensitive and specific marker of myeloma burden, as this protein is only produced by myeloma cells. Paraprotein estimation is a standard clinical parameter by which myeloma is monitored in human patients. Once detected, M-spikes were quantitated by densitometry (expressed as % of total serum protein). […] Mice were monitored by weekly M-spike quantification and for clinically apparent disease. Mice developing distress due to disease progression (e.g. hind limb paralysis, splenic rupture) were euthanased.
All mouse experiments were carried out in accordance with ethical guidelines determined by the Peter Mac Animal Experimental Ethics Committee. For in vivo assessment of NMP efficacy, treatment studies were performed on mice bearing transplanted Vk*MYC myeloma^2. […] To exclude the potential for adoptive transfer of immune cells with grafts into Rag2^−/−cγ^−/− mice and matched C57BL/6 recipients (FIG. 8f), freshly sorted Vk*MYC MM cells (40,000 per mouse) were used for this experiment. The onset of transplanted disease was confirmed by serum protein electrophoresis; those mice manifesting M-protein >2% of total serum protein (FIG. 8a) or >5% (remaining figures) were selected for treatment.
All dosing was performed by oral gavage using freshly prepared drug solutions or suspensions. Mice were dosed with NMP according to standard practice for drug administration using NMP/PEG as a vehicle^1. NMP (Sigma Aldrich, NSW, AUS) was diluted 1 in 10 v/v (FIG. 8a) or 1 in 5 v/v (remaining figures) in PEG300 (Sigma Aldrich, NSW, AUS) and administered by oral gavage to a final volume of 1 uL NMP per gram mouse weight.
BEZ235 was kindly provided by Novartis. According to Novartis' recommendations, BEZ235 was dissolved in NMP by heating briefly to 60° C. and further diluting 1 in 10 v/v in PEG300. Alternatively BEZ235 was suspended in 0.5% methylcellulose (MC) solution and mixed thoroughly prior to administration.
Lenalidomide was kindly provided by Celgene. Lenalidomide was suspended in 0.9% saline solution immediately prior to oral gavage at a dose of 100 mg/kg.
Treatment was continued daily for the first month, then weekdays only for the remainder of the indicated treatment period. Mice were culled with the development of features of overt myeloma, including permanent hind-limb paralysis and disseminated extramedullary disease.
Freshly obtained mouse serum was analyzed for paraproteinemia on the Sebia Hydrasys® semi-automated agarose gel electrophoresis system (Sebia, Norcross, Ga., USA). Serum M-spike densitometry quantification was performed using Phoresis software (release 4.7.2, Sebia) by a biochemist blinded to the nature of group allocation. M-spike results are expressed as a percentage of total serum protein.
For correlative quantitative immunoglobulin estimates, thawed aliquots of serum were batched for sandwich enzyme-linked immunosorbent assay (ELISA) using Igλ or IgK capture antibodies (Southern Biotech, AL, USA) and biotin/streptavidin detection by horseradish peroxidase/tetramethylbenzidine dihydrochloride substrate standardized against IgMK/IgMl isotype controls (Biolegend, CA, USA). ELISA plates were read using a VersaMax™ microplate reader and analyzed by SoftMax Pro software v 5.4 (Molecular Devices, CA, USA).

[2] = test system: K562 cells (natural killer (NK) only sensitive cell line); test: NK-cell cytotoxicity: drug-treated PBMC as effectors in chromium release assay; type: cell-based, human; settings: for NK cell function / cytotoxicity (K562 lysis): 10 uM, PBMC cultured 3 days, versus untreated
Procedure: (§1) FIG. 10. […] (b) The anti-inflammatory potential of NMP was assessed using LPS-treated CD14+ monocytes that were isolated from healthy donor PBMC. Monocytes were treated with 10 uM NMP or lenalidomide (LEN) and 1 ug/mL LPS for 18 hr or left untreated (Unt), then supernatants were analyzed via cytokine bead array for TNFα and IL-6. (c) The polarizing effect of NMP on cytokine production from PBMC was assessed from supernatants collected after 3d drug treatment. Levels of IL-2, IL-4 and IL-10 were analyzed by cytokine bead array. (d) NK-cell cytotoxicity was assessed by culturing healthy donor PBMC in the presence of 10 uM NMP, 10 uM lenalidomide, or as media alone (Unt). Cells harvested after 3d were washed and used as effectors in chromium release assays against the NK-only sensitive cell line, K562 at an effector ratio of 50:1. […] Data are presented as mean+/−SEM. NS, not statistically significant. (p≧0.05), *p<0.05
Healthy donor peripheral blood mononuclear cells (PBMC) were cultured for 3 days in RPMI-1640 and 10% FCS in the presence of 10 uM NMP, 10 uM Len (positive control) or no drugs. After 3 days the cells were harvested and used as effectors in a standard 4 hr chromium release assay, using K562 as targets (natural killer (NK) only sensitive cell line) (n=3).
BEZ235 and lenalidomide were dissolved in dimethylsulfoxide (DMSO) as 10 mM stock solutions and further diluted in media to final concentrations as specified in figure legends. The final concentration of DMSO was not greater than 0.1% v/v in any assay.

[3] = test system: U266 cells; test: Expression of NKG2D and DNAM-1 ligands on myeloma cells (flow cytometry); type: cell-based, human; settings: 10 uM, 48 hrs; FIG. 10f
[4] = test system: peripheral blood mononuclear cells (PBMC); test: Cytokine production of PBMC (cytokine bead array); type: cell-based, human; settings: for cytokine secretion profile (Th): FIG. 10c, 3d drug treatment
Procedure: PBMC were cultured for 3 days in RPMI-1640 and 10% FCS in the presence of 10 uM NMP, 10 uM Len or no drugs. After 3 days, supernatants were collected and a cytokine bead array performed via the Luminex instrument to analyze changes in IL-2, IL-4 and IL-10 production (n=3).
(§2) Supernatants from cultured cells or serum from VK*MYC mice were used to assess the level of individual cytokines (as specified in the methods and results section) via the Luminex cytokine bead array system. The assay was conducted according to the manufacturer instructions. Briefly, pre-mixed beads were added to 25 uL of undiluted supernatant/serum, followed by the addition of detection antibodies and streptavidin in 96 well filtered-membrane plates. The plates were run on the Luminex 200 instrument and data analysed with the xPONENT software.

[5] = test system: PI3K/mTOR phosphorylation targets; test: PI3K/mTOR phosphorylation targets in vivo; settings: in vivo (not shown)
[6] = test system: PBMC; test: Immune cell subset composition of cultured PBMC; type: cell-based, human; settings: 10 uM, 3 days
Procedure: PBMC were cultured in RPMI-1640 and 10% FCS for 3 days in the presence of either 10 uM NMP, 10 uM Len or no drugs. At day 3 the cells were harvested and stained for T cell markers (CD4 and CD8), NK markers (CD3−, CD56) and regulatory T cells (CD3, CD4, CD25, CD127low). For controls, day 0 PBMC were stained to assess changes in cellular subsets after 3 days (n=3).

[7] = test system: CD14+ monocytes; test: Inflammatory cytokine secretion by LPS-treated CD14+ monocytes; type: cell-based, human; settings: 10 uM; for IL-6 secretion / TNFα secretion: FIG. 10b, 1 ug/mL LPS, 18 hr
Procedure: as §1
CD14+ monocytes were sorted via the Dynal bead kit from PBMC. The cells were then treated with LPS to induce cytokine production, and cultured overnight in the presence of 10 uM NMP, 10 uM Len or no drugs. As background controls, non LPS stimulated monocytes were used. The supernatants were harvested and IL-1beta, GM-CSF, IL-6 and TNF-alpha analyzed via the Luminex beady array assay (n=3).
as §2

[8] = test system: LPS induced inflammation and shock; test: LPS challenge, serum cytokines in non-tumor bearing mice; type: in vivo, mouse; settings: FIG. 8c; serum 4 hours after LPS; NMP 1 uL/g po, lenalidomide 2 x 100 mg/kg po
Procedure: as §2
For LPS challenges, non-tumor bearing C57BL/6 mice were administered LPS (E. Coli 0127:B8, gamma-irradiated; Sigma) 1 mg/30 g mouse weight by intraperitoneal injection. NMP (1 uL/g mouse weight in PEG, po) was administered 4 hours prior to LPS. Lenalidomide was administered in 2 doses of 100 mg/kg po 24 and 4 hours prior to LPS. Serum was obtained 4 hours after LPS challenge and analyzed for cytokine content by bead array.

[9] = rats, in the diet; cited from earlier work
[10] = test system: Vk*MYC MM bearing mice; test: Serum cytokines in MM bearing mice; type: in vivo, mouse; settings: FIG. 8e; one week of treatment, versus SAL
Procedure: as §2
For cytokine assessment in MM bearing mice, mice were treated daily for 7d with NMP or SAL, and serum collected 4 hours after the last dose.

[11] = bacterial and mammalian tests; cited from earlier work
[12] = rats, long-term exposure via inhalation or diet; cited from earlier work
[13] = in vivo; cited from earlier work
[14] = test system: myeloma cell line (U266); test: Direct cytotoxicity, Annexin V and 7aad flow cytometry, U266; type: cell-based, human; settings: NMP 0 uM, 1 uM, 10 uM, 100 uM or 10 mM, 48 hours
Procedure: (§3) PBMC and a myeloma cell line (U266) were cultured in RPMI-1640 with 10% FCS in the presence of NMP (0 uM, 1 uM, 10 uM, 100 uM or 10 mM) for 48 hours. The cells were stained with viability markers (Annexin V and 7aad) and analyzed on the flow cytometer (n=2).

[15] = test system: PBMC; test: Direct cytotoxicity, Annexin V and 7aad flow cytometry, PBMC; type: cell-based, human; settings: NMP 0 uM, 1 uM, 10 uM, 100 uM or 10 mM, 48 hours
Procedure: as §3

Cn1c(=O)n(-c2ccc(C(C)(C)C#N)cc2)c2c3cc(-c4cnc5ccccc5c4)ccc3ncc21 [BEZ235, reference compound]
median survival ([1]; FIG. 8a, BEZ235 25 mg/kg/d concurrent with NMP/PEG, n=6): 42.5 days
effect on disease progression ([1]; FIG. 8a, BEZ235 in MC vehicle): minimal effect
median survival ([1]; FIG. 8a, BEZ235 in MC vehicle, n=8): 47.5 days
effect of concurrent administration on the therapeutic effect of NMP ([1]; FIG. 8a, BEZ235 with NMP/PEG): antagonized
effect of co-treatment on NMP-induced NK-cell lysis ([2]; BEZ235 250 nM with NMP, FIG. 10e): inhibited; also recorded: downregulated

Nc1cccc2c1CN(C1CCC(=O)NC1=O)C2=O (stereo not shown) [Lenalidomide, reference compound]
expression of NKG2D and DNAM-1 ligands (MIC-B, ULBP-1, ULBP-2 and CD155) [3]: a property not shared
IL-2 production ([4]; 10 uM, 3 days): without altering
cytokine secretion profile (Th) [4]: away from a Th-2 profile
effect on PI3K/mTOR phosphorylation targets [5]: did not detect any consistent effect
proportions of immune cell subtypes (CD4, CD8, NK, regulatory T cells) [6]: without altering
IL-6 secretion [7]: suppressed
TNFα secretion [7]: suppressed
efficacy against Vk*MYC MM in vivo (progression) [1]: poor efficacy
efficacy against Vk*MYC MM in vivo (progression) ([1]; listed as lenalidomide): minimal effects
IL-6 production following LPS challenge [8]: only NMP suppressed
TNFα serum levels following LPS challenge [8]: suppressed
NK cell function / cytotoxicity (K562 lysis) [2]: enhanced

CN1CCCC1=O [NMP, N-methylpyrrolidone]
no-effect level (for a decrease in pup body weight) [9]: 160 mg/kg/day
serum IL-6 [10]: reductions
serum TNFα [10]: reductions
expression of NKG2D and DNAM-1 ligands (MIC-B, ULBP-1, ULBP-2 and CD155) [3]: upregulated
genotoxicity [11]: no genotoxicity
IL4 production ([4]; 10 uM, 3 days): inhibit
IL10 production ([4]; 10 uM, 3 days): inhibit
cytokine secretion profile (Th) [4]: away from a Th-2 profile
effect on PI3K/mTOR phosphorylation targets [5]: did not detect any consistent effect
proportions of immune cell subtypes (CD4, CD8, NK, regulatory T cells) [6]: no significant alteration; also recorded: without altering
secretion of the four inflammatory cytokines (IL-1beta, GM-CSF, IL-6, TNF-alpha) ([7]; Example 6, FIG. 7, overnight, relative to LPS only control): not shown to demonstrate a statistically significant effect
IL-6 secretion [7]: Statistically significant inhibition; also recorded: suppressed
TNFα secretion [7]: Statistically significant inhibition; also recorded: suppressed
carcinogenic effects [12]: no carcinogenic effects
median survival ([1]; Example 1, FIG. 1, C57BL/6, NMP/PEG 1:10 v/v, 10 uL per gram, daily oral, 60 days, control 46 days): 60 days
residual polyclonal Ig Lambda (L) ([1]; FIG. 8b): better maintained; also recorded: less suppressed
clonally secreted Ig Kappa (K) ([1]; FIG. 8b, NMP/PEG versus PEG alone or PBS): Suppression
NMP response in Rag2−/−cγ−/− knockout mice ([1]; FIG. 8f, immunodeficient mice lacking T, B or NK cells): No response
NMP response in wild type C57BL/6 mice ([1]; FIG. 8f, same Vk*MYC clone): only observed in wild type C57BL/6
efficacy against Vk*MYC MM in vivo (progression) [1]: regressed
oral LD50 [13]: 3600 to 7700 mg/kg
IL-6 production following LPS challenge [8]: suppressed
TNFα serum levels following LPS challenge [8]: suppressed
NK cell function / cytotoxicity (K562 lysis) [2]: enhancement; also recorded: enhanced
direct cytotoxicity (AnnV+7aad+) [14]: did not increase to any significant extent; also recorded: not cytotoxic
direct cytotoxicity (AnnV+7aad+) [15]: did not increase to any significant extent; also recorded: not cytotoxic
